Measurements as given in patent publication EP3072511A1, “The medical use of 3-aryl substituted 1-indanones” (Centrum Badan Molekularnych I Makromolekularnych Polskiej …, priority 2013, dated 2016).

What was measured:
[1] = test system: cell line HeLa (cervix carcinoma, human); test: MTT cytotoxicity test, HeLa cells; conditions: 48 h, read-out: HeLa IC50 after 48h
bovine diarrhea virus = bovine diarrhea virus as counterpart of hepatitis virus C; cited from earlier work

`COP(=O)(OC)C1C(=O)c2cc3c(cc2C1c1ccccc1)OCO3` (stereo not drawn) [Compound 1a, 2-phosphoryl-3-phenyl substituted 1-indanone] gave an IC50 [1] of 90 µM.

Work on `COc1cc(OC)c2c(c1)C(=O)CC2c1ccc(Br)cc1` (stereo not drawn) [Compound 3a, 3-(para-bromophenyl) substituted 1-indanone] yielded an IC50 [1] of 60 µM.

In the case of `NC(=O)c1ncn([C@@H]2O[C@H](CO)[C@@H](O)[C@H]2O)n1` [ribavirin], the “selectivity index (SI)” value (bovine diarrhea virus) is given as 11.64.
